Experimental data taken from PMC4627794, “Non-Selective Cannabinoid Receptor Antagonists, Hinokiresinols Reduce Infiltration of Microglia/Macrophages into Ischemic Brain Lesions in Rat via Modulating 2-Arachidonolyglycerol-Induced Migration and Mitochondrial Activity” (PLoS ONE, 2015).

Columns and labels:
[1] = target: T1, hCB2R (human CB2R) (Homo sapiens, UniProt P34972); assay: competition radioligand binding, [3H]CP-55, […]
T1 construct: gene CNR2; full-length receptor stably expressed in CHO cells
T1 sequence (P34972 whole entry): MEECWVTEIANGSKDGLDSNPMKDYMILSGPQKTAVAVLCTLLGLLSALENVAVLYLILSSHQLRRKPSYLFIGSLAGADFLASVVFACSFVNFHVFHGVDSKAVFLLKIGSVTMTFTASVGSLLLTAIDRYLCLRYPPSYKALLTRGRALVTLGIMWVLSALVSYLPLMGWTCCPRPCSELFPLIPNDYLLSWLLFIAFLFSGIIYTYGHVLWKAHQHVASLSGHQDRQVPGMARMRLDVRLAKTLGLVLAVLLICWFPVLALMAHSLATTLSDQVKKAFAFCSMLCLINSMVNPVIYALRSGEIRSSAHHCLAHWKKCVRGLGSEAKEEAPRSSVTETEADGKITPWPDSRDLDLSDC

[2] = target: T2, CB1R (U2 OS cells, reporter gene assay) (Homo sapiens, UniProt P21554); assay: SRE-luciferase reporter gene assay, antagonism; format: cell-based
T2 construct: gene CNR1; receptor stably expressed in U2 OS cells
T2 sequence (P21554 whole entry): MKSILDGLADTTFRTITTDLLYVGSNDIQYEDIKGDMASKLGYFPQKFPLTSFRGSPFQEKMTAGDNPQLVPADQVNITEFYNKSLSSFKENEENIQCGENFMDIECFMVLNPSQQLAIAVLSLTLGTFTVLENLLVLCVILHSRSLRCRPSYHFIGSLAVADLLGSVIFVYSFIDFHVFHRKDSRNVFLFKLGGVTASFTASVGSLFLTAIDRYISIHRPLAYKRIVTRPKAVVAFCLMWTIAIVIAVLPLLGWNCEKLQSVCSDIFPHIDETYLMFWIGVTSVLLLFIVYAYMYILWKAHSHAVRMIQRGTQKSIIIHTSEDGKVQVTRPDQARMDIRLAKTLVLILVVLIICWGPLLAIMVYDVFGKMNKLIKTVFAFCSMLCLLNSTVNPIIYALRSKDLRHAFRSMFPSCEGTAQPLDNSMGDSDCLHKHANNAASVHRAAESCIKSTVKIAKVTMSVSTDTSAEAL
Text: SRE-luciferase reporter gene assay, antagonism on CB1R (U2 OS cells, reporter gene assay) | antagonism for CB1R and CB2R with IC50 values in micromolar ranges

[3] = target: T1, hCB2R (human CB2R); assay: forskolin-stimulated cAMP accumulation, antagonism; format: cell-based
Text: forskolin-stimulated cAMP accumulation, antagonism on hCB2R (human CB2R) | antagonism for CB1R and CB2R with IC50 values in micromolar ranges

[4] = target: T2, CB1R (U2 OS cells, reporter gene assay); assay: SRE-luciferase reporter gene assay, agonism; format: cell-based; details: agonist mode

SMILES | Ki [1] | IC50 [2] | IC50 [3] | EC50 [4]
CN1CCCCC1Cn1cc(C(=O)c2cc([N+](=O)[O-])ccc2I)c2ccccc21 (centres unmarked) [AM-1241, reference compound] | 0.0066 µM |  |  | 
C=C[C@@H](/C=C/c1ccc(O)cc1)c1ccc(O)cc1 [trans-hinokiresinol] | 9.5 µM | 10.2 µM | 20.5 µM | 
C=C[C@@H](/C=C\c1ccc(O)cc1)c1ccc(O)cc1 [cis-hinokiresinol] | 12.2 µM | 11.2 µM | 72.5 µM | 
CCCCCCC(C)(C)c1cc(O)c2c(c1)OC(C)(C)[C@@H]1CC=C(CO)C[C@@H]21 [Hu-210] |  |  |  | 0.000199 µM
